What was measured:
HeLa cells = details: HeLa, data not shown
Method: HeLa cells were plated at a density of 250,000-300,000 cells/mL. After 24 hr cells, the cells were irradiated in a dose dependent manner (0-4 Gy) using a ^137Cs gamma source. After treatment, the cells were trypsinized and plated at a density between 300-4000 cells in 60 mm dishes. Cells were allowed to grow colonies (1 colony≧50 cells) for 10-14 days, stained with 0.25% crystal violet, and manually counted to measure the number of colonies. Survival fractions were normalized against positive controls (colony formation with no radiation) and plotted as the log percent survival versus dose of radiation. Each experiment was performed an average of four (4) times with cells propagated on several different days.
In this case, we measured the effects of combining these (phosphine)gold(I) indoles with ionizing radiation (IR), a widely used therapy used to treat solid tumors. […] After this time frame, media containing the (phosphine)gold(I) indole was removed and replaced with fresh media. The cells were then irradiated in a dose-dependent fashion from 0 to 6 Gy. Cell viability was assessed using a clonogenic assay that measures colony formation and thus accurately defines the cytotoxic effects of IR exposure. […] The initial linear phase is particularly important as this reflects repair of non-lethal damage inflicted by clinically-relevant doses of IR (˜2 Gy).

CEM-C7 = experiment: Cell proliferation / cytotoxicity assay; type: cell-based; details: for IC50: cell viability, cell-titer blue, up to 48 hours
Method: (§1) HeLa, MCF-7, HCT-116, and CEM-C7 were obtained from the American Type Culture Collection (Manassas, Va., USA). All adherent cell lines were maintained in Dulbecco's modified Eagle's medium (Mediatech) with 100 U/ml penicillin (Invitrogen), 100 μg/ml streptomycin (Invitrogen), 0.25 μg/ml amphotericin B (Invitrogen), and 10% fetal bovine serum (USA Scientific) and incubated at 37° C. with 5% CO2. CEM cells were maintained in RPMI-1640 media supplemented with 100 U/ml penicillin, 100 μg/ml streptomycin, 0.25 μg/ml amphotericin B, and 10% fetal bovine serum and incubated at 37° C. with […].
(§2) Cells were plated at a density of 7,000-13,000/well in 200 μl of media overnight in a 96-well plate. Each (phosphine)gold(I)-indole was added to wells in a dose-dependent manner (0.01-100 μM). Cells were treated with compounds for variable time periods (8-48 hours). With adherent cell lines, medium was removed from the wells and then 100 μl of fresh medium was added into each well followed by the addition of 20 μl of cell titer-blue reagent (Promega). Cells were incubated with reagent for 1-4 hrs and the optical density of samples was read at 560 nm using a microplate reader. The background absorbance of dye with media was subtracted from each sample. Cell viability was then normalized against cells treated with DMSO. IC50 values were obtained using a fit of the data to Equation 1: Y=100%/[1+(IC50/Inhibitor)] (1)
(§3) where y is the fraction of viable cells, IC50 is the concentration of inhibitor that inhibits 50% cell growth, and Inhibitor is the concentration of compound tested.
(§4) The cellular effects of these (phosphine)gold(I) indoles were tested against several cancer cell lines including HeLa (cervical cancer), MCF-7 (breast cancer), HCT-116 (colon cancer), and CEM-C7 (leukemia). The dose-dependency of each modified indole on cell viability was assessed using a cell-titer blue assay as previously described. In these experiments, cells were exposed to variable concentrations of each (phosphine)gold(I) indole (0.01-100 μM) for up to 48 hours and then assessed for viability.
Defining this mechanism of cell death is important as necrosis can cause various side-effects including septic shock and kidney failure that can obviously compromise patient health.

MCF-7 = experiment: Cell proliferation assay (cell-titer blue); type: cell-based; details: cell viability, up to 48 hours
Method: as §1, §2, §3, §4

HeLa = experiment: Cell proliferation assay (cell-titer blue); type: cell-based; details: for IC50: cell viability, cell-titer blue, up to 48 hours
Method: as §1, §2, §3, §4

HCT-116 = experiment: Cell proliferation assay (cell-titer blue); type: cell-based; details: cell viability, up to 48 hours, read-out: IC50 HCT116
Method: as §1, §2, §3, §4

BSA = BSA (Bos taurus, UniProt P02769); experiment: Reactivity of Au(I)-compounds with BSA thiol (DTNB -SH titer); set-up: species or system bovine; details: 120 μM compound, Au(I)/BSA ratios up to 4:1, one hour, 37° C., PBS
Method: PBS was used as the reaction buffer.
We tested the ability of various Au(I)-complexes to non-selectively react with BSA. […] P2 resin was effective in retaining Au(I)-containing compounds including compound 3 and compound 4. However, BSA was not retained in the resin as >95% of the BSA loaded into the Penefsky column is recovered in the eluant. […] Values obtained from reactions containing BSA incubated with the various Au(I) complexes were compared to identical reactions containing BSA alone and eluted through Penefsky columns.

Sequence of BSA (P02769 25-607): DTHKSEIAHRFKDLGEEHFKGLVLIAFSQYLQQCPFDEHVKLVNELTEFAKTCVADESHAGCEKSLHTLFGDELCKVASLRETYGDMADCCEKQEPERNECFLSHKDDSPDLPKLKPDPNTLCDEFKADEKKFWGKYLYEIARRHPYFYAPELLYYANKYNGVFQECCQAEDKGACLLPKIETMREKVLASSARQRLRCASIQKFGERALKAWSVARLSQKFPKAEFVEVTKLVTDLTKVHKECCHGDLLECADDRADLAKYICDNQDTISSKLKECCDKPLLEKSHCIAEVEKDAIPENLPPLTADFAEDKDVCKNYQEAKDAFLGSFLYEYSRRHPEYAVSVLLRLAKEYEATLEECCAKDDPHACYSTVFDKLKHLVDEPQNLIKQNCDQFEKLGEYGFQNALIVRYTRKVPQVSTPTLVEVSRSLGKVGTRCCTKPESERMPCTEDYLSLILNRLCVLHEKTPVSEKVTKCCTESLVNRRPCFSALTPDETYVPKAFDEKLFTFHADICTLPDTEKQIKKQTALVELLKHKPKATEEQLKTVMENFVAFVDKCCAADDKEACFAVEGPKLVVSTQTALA

For `CC(C)(C)C(=O)OCn1ccc2c[c]([Au-][P+](c3ccccc3-c3ccccc3)(C3CCCCC3)C3CCCCC3)ccc21` [Compound 6, 5-{[1,1′-biphenyl]-2-yldicyclohexylphosphine aurate(I)}-(1H-indol-1-yl)methyl pivalate], the “enhancement of the cell killing effects of IR” value (HeLa cells) was “do not enhance the cell killing effects of IR”, the IC50 (CEM-C7) was 0.42 µM and the IC50 (MCF-7) was 0.96 µM. It also gave an IC50 (HeLa) of 0.66 µM and an IC50 (HCT-116) of 1.8 µM.
`[Au+].[Br-].c1ccc(P(c2ccccc2)c2ccccc2)cc1` [BrAuPPh3, reference compound] was tested, and the “reactivity with BSA (relative thiol content, -SH titer)” value (BSA) was “facile interactions”, the “mechanism of cell death (propidium iodide uptake)” value (CEM-C7; CEM-C7 cells) was “causes necrosis” and the LD50 (CEM-C7; cytotoxic effect, leukemia cell line CEM-C7) was 0.22 ± 0.05 µM. For the same molecule, the “anti-cancer (cytostatic or cytotoxic) effects” value (HeLa; up to the highest concentration of 100 μM) was “does not produce significant cytostatic or cytotoxic effects”.
`CC(C)(C)OC(=O)n1ccc2c[c]([Au-][P+](c3ccccc3-c3ccccc3)(C3CCCCC3)C3CCCCC3)ccc21` [Compound 5, 5-{[1,1′-biphenyl]-2-yldicyclohexylphosphine aurate(I)}-tert-butyl H-indole-1-carboxylate] gave an IC50 (CEM-C7) of 2.1 µM, an IC50 (MCF-7) of 2.3 µM and an IC50 (HeLa) of 2.4 µM. For the same molecule, the IC50 (HCT-116) was 3.4 µM.
For `Cn1ccc2c[c]([Au-][P+](c3ccccc3-c3ccccc3)(C3CCCCC3)C3CCCCC3)ccc21` [Compound 7, 5-{[1,1′-biphenyl]-2-yldicyclohexylphosphine aurate(I)}-1-methyl-1H-indole], the “enhancement of the cell killing effects of IR” value (HeLa cells) was “do not enhance the cell killing effects of IR”, the IC50 (CEM-C7) was 1.43 µM and the IC50 (MCF-7) was 3.25 µM. It also gave an IC50 (HeLa) of 0.46 µM and an IC50 (HCT-116) of 0.38 µM.
